Experimental findings from US20230212172A1, “ARYLACETAMIDE ANALOGS OF PIPERAZINE-[1,2,4]TRIAZOLO[4,3-B]PYRIDAZINES” (University of Vermont and State Agricultural College, priority 2020, published 2023) are described below.

This test deals with C. parvum. Briefly: In vitro inhibition of C. parvum development in HCT-8 cells. It is filed as cell-based. To be noted: Cryptosporidium parvum.
[1] abbreviates: HCT-8 cells, Table 4, read-out: EC50 for inhibition of C. parvum development in HCT-8 cells.
[2] abbreviates: average EC50, C. parvum in HCT-8 cells, read-out: Cp HTC-8 Avg EC50.

Read-outs that look alike come from different tables or passages of the source.

In the case of `O=C(Cc1cccc2ccccc12)N1CCN(c2ccc3nncn3n2)CC1` [Example 2257, 2-(naphthalen-1-yl)-1-(4-{[1,2,4]triazolo[4,3-b]pyridazin-6-yl}piperazin-1-yl)ethan-1-one], the EC50 – broadly, the concentration needed to bring the measured effect to its halfway point – under setting [1] is 17100 nM. Still for that read-out and setting: to `CC1CN(c2ccc3nncn3n2)CCN1C(=O)Cc1ccc(Cl)c(Cl)c1` (centres unmarked) [Example 2752, 2-(3,4-dichlorophenyl)-1-(2-methyl-4-{[1,2,4]triazolo[4,3-b]pyridazin-6-yl}piperazin-1-yl)ethan-1-one] belongs 7440 nM; to `O=C(Cc1cccc(S(F)(F)(F)(F)F)c1)N1CCN(c2ccc3nncn3n2)CC1` [Example 10442, 2-[3-(pentafluoro-λ^6-sulfanyl)phenyl]-1-(4-{[1,2,4]triazolo[4,3-b]pyridazin-6-yl}piperazin-1-yl)ethan-1-one], 1120 nM. Turning to `O=C(Cc1ccc(Cl)cc1)N1CCN(c2ccc3nncn3n2)CC1` [Example 2634, 2-(4-chlorophenyl)-1-(4-{[1,2,4]triazolo[4,3-b]pyridazin-6-yl}piperazin-1-yl)ethan-1-one], the EC50 under setting [2] is 880 nM. As to `Cc1ccc(CC(=O)N2CCN(c3ccc4nncn4n3)CC2)cc1F` [Example 2757, 2-(3-fluoro-4-methylphenyl)-1-(4-{[1,2,4]triazolo[4,3-b]pyridazin-6-yl}piperazin-1-yl)ethan-1-one], the EC50 under setting [1] was determined as 5560 nM. As for `O=C(N1CCN(c2ccc3nncn3n2)CC1)C(F)(F)c1ccc(Cl)c(Cl)c1` [Example 2799, 2-(3,4-dichlorophenyl)-2,2-difluoro-1-(4-{[1,2,4]triazolo[4,3-b]pyridazin-6-yl}piperazin-1-yl)ethan-1-one], the EC50 under setting [1] amounted to 2300 nM. Same read-out and setting: in the case of `O=C(Cc1ccc(Cl)cc1Cl)N1CCN(c2ccc3nncn3n2)CC1` [Example 2721, 2-(2,4-dichlorophenyl)-1-(4-{[1,2,4]triazolo[4,3-b]pyridazin-6-yl}piperazin-1-yl)ethan-1-one] it was greater than 25000 nM; in that of `O=C(N1CCN(c2ccc3nncn3n2)CC1)C1(c2ccc(Cl)c(Cl)c2)CC1` [Example 2766, 1-[1-(3,4-dichlorophenyl)cyclopropanecarbonyl]-4-{[1,2,4]triazolo[4,3-b]pyridazin-6-yl}piperazine], 8330 nM.

As for `Cc1cc(CC(=O)N2CCN(c3ccc4nncn4n3)CC2)ccc1Cl` [Example 2758, 2-(4-chloro-3-methylphenyl)-1-(4-{[1,2,4]triazolo[4,3-b]pyridazin-6-yl}piperazin-1-yl)ethan-1-one], the concentration giving a half-maximal response (EC50) under setting [1] came to 292 nM and the EC50 under setting [2] came to 279 nM. For `O=C(Cc1ccc2c(c1)OCO2)N1CCN(c2ccc3nncn3n2)CC1` [Example 10422, 2-(2H-1,3-benzodioxol-5-yl)-1-(4-{[1,2,4]triazolo[4,3-b]pyridazin-6-yl}piperazin-1-yl)ethan-1-one], under setting [1], the EC50 was determined as 10400 nM. With `O=C(Cc1cc(Cl)cc(C(F)(F)F)c1)N1CCN(c2ccc3nncn3n2)CC1` [Example 10479, 2-[3-chloro-5-(trifluoromethyl)phenyl] -1-(4-{[1,2,4]triazolo[4,3-b]pyridazin-6-yl}piperazin-1-yl)ethan-1-one], the EC50 under setting [1] is 407 nM and the concentration giving a half-maximal response (EC50) under setting [2] is 407 nM.

Regarding `N#Cc1ccc(CC(=O)N2CCN(c3ccc4nncn4n3)CC2)cc1` [Example 2797, 4-[2-oxo-2-(4-{[1,2,4]triazolo[4,3-b]pyridazin-6-yl}piperazin-1-yl)ethyl]benzonitrile], the concentration giving a half-maximal response (EC50) under setting [1] worked out at 11000 nM.

Regarding `O=C(Cc1ccc(F)c(F)c1)N1CCN(c2ccc3nncn3n2)CC1` [Example 2800, 2-(3,4-difluorophenyl)-1-(4-{[1,2,4]triazolo[4,3-b]pyridazin-6-yl}piperazin-1-yl)ethan-1-one], the EC50 is 760 nM under setting [1] and 760 nM under setting [2]. On to `CC(C)(C)OC(=O)NCCCc1ccc(CC(=O)N2CCN(c3ccc4nncn4n3)CC2)cc1` [Example 10242, Tert-butyl N-(3-{4-[2-oxo-2-(4-{[1,2,4]triazolo[4,3-b]pyridazin-6-yl}piperazin-1-yl)ethyl]phenyl}propyl)carbamate], for which the EC50 under setting [1] is greater than 50000 nM. In the case of `O=C(Cc1cc(F)cc(Cl)c1)N1CCN(c2ccc3nncn3n2)CC1` [Example 10483, 2-(3-chloro-5-fluorophenyl)-1-(4-{[1,2,4]triazolo[4,3-b]pyridazin-6-yl}piperazin-1-yl)ethan-1-one], the EC50 by setting is: under setting [1], 880 nM; under setting [2], 880 nM. For `O=C(Cc1ccc(F)c(Cl)c1)N1CCN(c2ccc3nncn3n2)CC1` [Example 2763, 2-(3-chloro-4-fluorophenyl)-1-(4-{[1,2,4]triazolo[4,3-b]pyridazin-6-yl}piperazin-1-yl)ethan-1-one], the EC50 runs as follows: under setting [1], 240 nM; under setting [2], 238 nM.

For `O=C(Cc1cc(C(F)(F)F)cc(C(F)(F)F)c1)N1CCN(c2ccc3nncn3n2)CC1` [SLU-0010495, 2-[3,5-bis(trifluoromethyl)phenyl]-1-(4-{[1,2,4]triazolo[4,3-b]pyridazin-6-yl}piperazin-1-yl)ethan-1-one], the EC50 under setting [2] is 319 nM. `O=C(Cc1cc(F)cc(F)c1)N1CCN(c2ccc3nncn3n2)CC1` [Example 10485, 2-(3,5-difluorophenyl)-1-(4-{[1,2,4]triazolo[4,3-b]pyridazin-6-yl}piperazin-1-yl)ethan-1-one]: the EC50 under setting [1] is 5660 nM.

For the molecule `O=C(Cc1ccc(Cl)c(F)c1)N1CCN(c2ccc3nncn3n2)CC1` [Example 2631, 2-(4-chloro-3-fluorophenyl)-1-(4-{[1,2,4]triazolo[4,3-b]pyridazin-6-yl}piperazin-1-yl)ethan-1-one], the EC50 was determined as 530 nM under setting [1] and 530 nM under setting [2].

`O=C(Cc1cccc(Br)c1)N1CCN(c2ccc3nncn3n2)CC1` [Example 2760, 2-(3-bromophenyl)-1-(4-{[1,2,4]triazolo[4,3-b]pyridazin-6-yl}piperazin-1-yl)ethan-1-one]: under setting [1], the EC50 was 2290 nM. Same read-out and setting: to `O=C(C(=O)N1CCN(c2ccc3nncn3n2)CC1)c1ccc(Cl)c(Cl)c1` [Example 2765, 1-(3,4-dichlorophenyl)-2-(4-{ [1,2,4]triazolo[4,3-b]pyridazin-6-yl}piperazin-1-yl)ethane-1,2-dione] belongs 2250 nM; to `CC(C)(C)OC(=O)NCC#Cc1ccc(CC(=O)N2CCN(c3ccc4nncn4n3)CC2)cc1` [Example 2811, Tert-butyl N-(3-{4-[2-oxo-2-(4-{[1,2,4]triazolo[4,3-b]pyridazin-6-yl}piperazin-1-yl)ethyl]phenyl}prop-2-yn-1-yl)carbamate], 12800 nM; to `COc1cccc(CC(=O)N2CCN(c3ccc4nncn4n3)CC2)c1` [Example 2762, 2-(3-methoxyphenyl)-1-(4-{[1,2,4]triazolo[4,3-b]pyridazin-6-yl}piperazin-1-yl)ethan-1-one], 16400 nM. Same read-out and setting: in the case of `O=C(Cc1ccc(S(F)(F)(F)(F)F)cc1)N1CCN(c2ccc3nncn3n2)CC1` [Example 10441, 2-[4-(pentafluoro-λ^6-sulfanyl)phenyl]-1-(4-{[1,2,4]triazolo[4,3-b]pyridazin-6-yl}piperazin-1-yl)ethan-1-one] it was 11500 nM. Turning to `O=C(Cc1ccc(Br)c(F)c1)N1CCN(c2ccc3nncn3n2)CC1` [Example 10240, 2-(4-bromo-3-fluorophenyl)-1-(4-{[1,2,4]triazolo[4,3-b]pyridazin-6-yl}piperazin-1-yl)ethan-1-one], the EC50 runs as follows: under setting [1], 773 nM; under setting [2], 773 nM. For `O=C(Cc1ccc(F)c(C(F)(F)F)c1)N1CCN(c2ccc3nncn3n2)CC1` [Example 10482, 2-[4-fluoro-3-(trifluoromethyl)phenyl] -1-(4-{[1,2,4]triazolo[4,3-b]pyridazin-6-yl}piperazin-1-yl)ethan-1-one], the 50% effective concentration (EC50) runs as follows: under setting [1], 68.7 nM; under setting [2], 68.6 nM. Take `O=C(Cc1cccc(Cl)c1)N1CCN(c2ccc3nncn3n2)CC1` [Example 2764, 2-(3-chlorophenyl)-1-(4-{[1,2,4]triazolo[4,3-b]pyridazin-6-yl}piperazin-1-yl)ethan-1-one]: under setting [1], the EC50 was 3610 nM. With `O=C(Cc1ccc(F)cc1)N1CCN(c2ccc3nncn3n2)CC1` [Example 2632, 2-(4-fluorophenyl)-1-(4-{[1,2,4]triazolo[4,3-b]pyridazin-6-yl}piperazin-1-yl)ethan-1-one], the EC50 under setting [1] is 1180 nM. Same read-out and setting: in the case of `Cc1nnc2ccc(N3CCN(C(=O)Cc4ccc(Cl)c(Cl)c4)CC3)nn12` [Example 2808, 2-(3,4-dichlorophenyl)-1-(4-{3-methyl-[1,2,4]triazolo[4,3-b]pyridazin-6-yl}piperazin-1-yl)ethan-1-one] it was 30000 nM; in that of `O=C(Cc1ccc(Cl)c(Cl)c1)N1CCN(c2ccc3nnc(-c4ccccc4)n3n2)CC1` [Example 2807, 2-(3,4-dichlorophenyl)-1-(4-{3-phenyl-[1,2,4]triazolo[4,3-b]pyridazin-6-yl}piperazin-1-yl)ethan-1-one], 15000 nM. With `O=C(Cc1ccccc1)N1CCN(c2ccc3nncn3n2)CC1` [Example 2819, 2-phenyl-1-(4-{[1,2,4]triazolo[4,3-b]pyridazin-6-yl}piperazin-1-yl)ethan-1-one], the half-maximal effective concentration (EC50) under setting [1] was determined as 22000 nM.

As for `O=C(Cc1ccc(-c2ccccc2)cc1)N1CCN(c2ccc3nncn3n2)CC1` [Example 2809, 2-{[1,1′-biphenyl]-4-yl}-1-(4-{[1,2,4]triazolo[4,3-b]pyridazin-6-yl}piperazin-1-yl)ethan-1-one], the EC50 under setting [1] is greater than 25000 nM. The same measure, in the same setting: to `O=C(Cc1ccc(C(F)(F)F)cc1)N1CCN(c2ccc3nncn3n2)CC1` [Example 10484, 1-(4-{[1,2,4]triazolo[4,3-b]pyridazin-6-yl}piperazin-1-yl)-2-[4-(trifluoromethyl)phenyl] ethan-1-one] belongs 5450 nM. On the same count and under the same terms, to `O=C(Cc1ccc(Cl)c(Cl)c1)N1CCN(c2ccc3nnc(C(F)(F)F)n3n2)CC1` [Example 2810, 2-(3,4-dichlorophenyl)-1-{4-[3-(trifluoromethyl)-[1,2,4]triazolo[4,3-b]pyridazin-6-yl]piperazin-1-yl}ethan-1-one] belongs 29000 nM. Regarding `O=C(Cc1cc(Cl)cc(Cl)c1)N1CCN(c2ccc3nncn3n2)CC1` [Example 2747, 2-(3,5-dichlorophenyl)-1-(4-{[1,2,4]triazolo[4,3-b]pyridazin-6-yl}piperazin-1-yl)ethan-1-one], the EC50 by setting is: under setting [1], 990 nM; under setting [2], 990 nM.
